Structures are written as SMILES. Calls of active or inactive are those of the source. The rule behind the calls is not given here.

For this experiment, the system named is HEK293. Briefly: Inhibition of LPS-induced NF-kappaB nuclear transactivation in HEK293 cells transfected with TLR4 coexpressing MD2 and CD14 co-receptor assessed as alkaline phosphatase activity by spectrophotometry. The class given is cell-based. The settings on record: Homo sapiens.
As to `CCCCCCCCCCCCCCCCNCCCNCCCNCCCN`, the result was Active. In the case of `CCCCCCCCCCCCCCCCNCCCNCCCNCCCNCCCNCCCN`, the result was Active. For `CCCCCCCCCCCCCCCCNCCCNCCCCNCCCN` the value was “Active”. For `CCCCCCCCCCCCCCCCNCCCNCCCNCCCCNCCCNCCCN` the value was “Active”; for `CCCCCCCCCCCCCCCCNCCCNCCCNCCCNCCCN`, “Active”.

On to `CCCCCCCCCCCCCCCCNCCCNCCCNCCCCNCCCN`, for which the result was Active.

The record behind these values is ChEMBL document CHEMBL1138604, “Structure-activity relationships of lipopolysaccharide sequestration in N-alkylpolyamines” (Bioorg Med Chem Lett, 2009).
